Assay results taken from PubChem BioAssay (NCI).
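Values below derive from 48-hour exposures of cells grown in 96-well plates, with endpoints linearly interpolated between the two concentrations bracketing the appropriate inhibition level. GI50 = concentration required for 50% inhibition of growth. Definition used: TGI = concentration required for complete inhibition of growth.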

Assays:
Experiment in all cases: NCI-60 cell line screen, 48 h
UACC-257 melanoma = test system: UACC-257 melanoma
IGROV1 ovarian = test system: IGROV1 ovarian
PC-3 prostate = test system: PC-3 prostate
SW-620 colon = test system: SW-620 colon
SR leukemia = test system: SR leukemia
A549 NSCLC = test system: A549 NSCLC
MDA-MB-435 = test system: MDA-MB-435
A498 renal = test system: A498 renal
LOX IMVI melanoma = test system: LOX IMVI melanoma
HS 578T breast = test system: HS 578T breast
HT29 colon = test system: HT29 colon
NCI-H23 lung = test system: NCI-H23 lung
SK-MEL-2 melanoma = test system: SK-MEL-2 melanoma
TK-10 renal = test system: TK-10 renal
HOP-62 NSCLC = test system: HOP-62 NSCLC
KM12 colon = test system: KM12 colon
OVCAR-8 ovarian = test system: OVCAR-8 ovarian
SF-539 CNS = test system: SF-539 CNS
SK-MEL-5 melanoma = test system: SK-MEL-5 melanoma
K-562 leukemia = test system: K-562 leukemia
MDA-MB-231 breast = test system: MDA-MB-231 breast
HCC-2998 colon = test system: HCC-2998 colon
HCT-15 colon = test system: HCT-15 colon
UO-31 renal = test system: UO-31 renal
HOP-92 NSCLC = test system: HOP-92 NSCLC
OVCAR-4 ovarian = test system: OVCAR-4 ovarian
MCF7 breast = test system: MCF7 breast
CCRF-CEM leukemia = test system: CCRF-CEM leukemia
SNB-19 CNS = test system: SNB-19 CNS
RPMI-8226 leukemia = test system: RPMI-8226 leukemia
UACC-62 melanoma = test system: UACC-62 melanoma
MDA-MB-468 breast = test system: MDA-MB-468 breast
T-47D breast = test system: T-47D breast
MOLT-4 leukemia = test system: MOLT-4 leukemia
SK-MEL-28 melanoma = test system: SK-MEL-28 melanoma
RXF 393 renal = test system: RXF 393 renal
NCI-H460 lung = test system: NCI-H460 lung
HL-60(TB) leukemia = test system: HL-60(TB) leukemia
786-0 renal = test system: 786-0 renal
OVCAR-3 ovarian = test system: OVCAR-3 ovarian
NCI-H226 lung = test system: NCI-H226 lung
CAKI-1 renal = test system: CAKI-1 renal
SK-OV-3 ovarian = test system: SK-OV-3 ovarian
MALME-3M melanoma = test system: MALME-3M melanoma
M14 melanoma = test system: M14 melanoma
BT-549 breast = test system: BT-549 breast
HCT-116 colon = test system: HCT-116 colon
NCI-H522 lung = test system: NCI-H522 lung
NCI/ADR-RES ovarian = test system: NCI/ADR-RES ovarian
SN12C renal = test system: SN12C renal
U251 CNS = test system: U251 CNS
SF-268 CNS = test system: SF-268 CNS
DU-145 prostate = test system: DU-145 prostate
EKVX NSCLC = test system: EKVX NSCLC
COLO 205 colon = test system: COLO 205 colon
SF-295 CNS = test system: SF-295 CNS
OVCAR-5 ovarian = test system: OVCAR-5 ovarian
SNB-75 CNS = test system: SNB-75 CNS
ACHN renal = test system: ACHN renal

## COc1ccc(S(=O)(=O)Nc2ccc(-c3ccc4c(c3)NC(=O)/C4=C\c3ccc[nH]3)cc2)cc1OC
UACC-257 melanoma
  GI50: 0.691 µM
  TGI: 12.1 µM
IGROV1 ovarian
  GI50: 12.9 µM
  TGI: 33 µM
PC-3 prostate
  GI50: 10.1 µM
  TGI: 41.3 µM
SW-620 colon
  GI50: 8.53 µM
  TGI: 71.7 µM
SR leukemia
  GI50: 0.86 µM
  TGI: > 100 µM
A549 NSCLC
  GI50: 2.18 µM
  TGI: 14.2 µM
MDA-MB-435
  GI50: 6.35 µM
  TGI: 38.9 µM
A498 renal
  GI50: 14.3 µM
  TGI: 28.5 µM
LOX IMVI melanoma
  GI50: 6.39 µM
  TGI: 27.6 µM
HS 578T breast
  GI50: 4.6 µM
  TGI: 61.8 µM
HT29 colon
  GI50: 7.61 µM
  TGI: > 100 µM
NCI-H23 lung
  GI50: 0.194 µM
  TGI: 14.7 µM
SK-MEL-2 melanoma
  GI50: 14.3 µM
  TGI: 33.8 µM
TK-10 renal
  GI50: 3.3 µM
  TGI: 18.7 µM
HOP-62 NSCLC
  GI50: 10.2 µM
  TGI: 23.3 µM
KM12 colon
  GI50: 9.03 µM
  TGI: > 100 µM
OVCAR-8 ovarian
  GI50: 11.2 µM
  TGI: 28.9 µM
SF-539 CNS
  GI50: 1.66 µM
  TGI: 11 µM
SK-MEL-5 melanoma
  GI50: 3.35 µM
  TGI: 22.1 µM
K-562 leukemia
  GI50: 11.9 µM
  TGI: > 100 µM
MDA-MB-231 breast
  GI50: 3.82 µM
  TGI: 15.3 µM
HCC-2998 colon
  GI50: 5.74 µM
  TGI: > 100 µM
HCT-15 colon
  GI50: 13.7 µM
  TGI: > 100 µM
UO-31 renal
  GI50: 12.9 µM
  TGI: 27.4 µM
HOP-92 NSCLC
  GI50: 3.43 µM
  TGI: 18.3 µM
OVCAR-4 ovarian
  GI50: 1.76 µM
  TGI: 11.8 µM
MCF7 breast
  GI50: 0.0476 µM
  TGI: 11.1 µM
CCRF-CEM leukemia
  GI50: 16.1 µM
  TGI: > 100 µM
SNB-19 CNS
  GI50: 12.6 µM
  TGI: 26.3 µM
RPMI-8226 leukemia
  GI50: 8.33 µM
  TGI: > 100 µM
UACC-62 melanoma
  GI50: 0.75 µM
  TGI: 8.59 µM
MDA-MB-468 breast
  GI50: 0.0309 µM
  TGI: 0.113 µM
T-47D breast
  GI50: 0.0285 µM
  TGI: 1.27 µM
MOLT-4 leukemia
  GI50: 14.8 µM
  TGI: > 100 µM
SK-MEL-28 melanoma
  GI50: 0.886 µM
  TGI: 7.07 µM
RXF 393 renal
  GI50: 1.4 µM
  TGI: 6.74 µM
NCI-H460 lung
  GI50: 0.343 µM
  TGI: 11.3 µM
HL-60(TB) leukemia
  GI50: 8.35 µM
  TGI: > 100 µM
786-0 renal
  GI50: 3.43 µM
  TGI: 15.2 µM
OVCAR-3 ovarian
  GI50: 8.4 µM
  TGI: 27.5 µM
NCI-H226 lung
  GI50: 1.82 µM
  TGI: 12.8 µM
CAKI-1 renal
  GI50: 6.18 µM
  TGI: 19.9 µM
SK-OV-3 ovarian
  GI50: 3.59 µM
  TGI: 15.1 µM
MALME-3M melanoma
  GI50: 4.26 µM
  TGI: 15.9 µM
M14 melanoma
  GI50: 2.4 µM
  TGI: 17.4 µM
BT-549 breast
  GI50: 2.23 µM
  TGI: 9.35 µM
HCT-116 colon
  GI50: 4.72 µM
  TGI: 88.5 µM
NCI-H522 lung
  GI50: 3.25 µM
  TGI: 23 µM
NCI/ADR-RES ovarian
  GI50: 14 µM
  TGI: > 100 µM
SN12C renal
  GI50: 12.4 µM
  TGI: 30.8 µM
U251 CNS
  GI50: 10.1 µM
  TGI: 23.2 µM
SF-268 CNS
  GI50: 15.3 µM
  TGI: 55.2 µM
DU-145 prostate
  GI50: 4.88 µM
  TGI: 20.8 µM
EKVX NSCLC
  GI50: 0.0835 µM
  TGI: 17.5 µM
COLO 205 colon
  GI50: 10.2 µM
  TGI: 83.3 µM
SF-295 CNS
  GI50: 3.12 µM
  TGI: 15.1 µM
OVCAR-5 ovarian
  GI50: 10.6 µM
  TGI: 23.8 µM
SNB-75 CNS
  GI50: 1.37 µM
  TGI: 21.2 µM
ACHN renal
  GI50: 6.99 µM
  TGI: 20.2 µM

## COc1ccc2ncc(C#Cc3cncc(C(=O)Nc4ccc(CN5CCN(C)CC5)c(C(F)(F)F)c4)c3)n2n1
UACC-257 melanoma
  GI50: 3.8 µM
  TGI: 16.7 µM
IGROV1 ovarian
  GI50: 3.81 µM
  TGI: > 30.2 µM
PC-3 prostate
  GI50: 3.76 µM
  TGI: 19.9 µM
SW-620 colon
  GI50: 0.27 µM
  TGI: 7.6 µM
SR leukemia
  GI50: 0.549 µM
  TGI: > 30.5 µM
A549 NSCLC
  GI50: 1.27 µM
  TGI: 17.7 µM
MDA-MB-435
  GI50: 0.54 µM
  TGI: 13.3 µM
A498 renal
  GI50: 14.2 µM
  TGI: > 37.7 µM
LOX IMVI melanoma
  GI50: 0.877 µM
  TGI: 4.26 µM
HS 578T breast
  GI50: 0.398 µM
  TGI: 6.06 µM
HT29 colon
  GI50: 0.444 µM
  TGI: 9.45 µM
NCI-H23 lung
  GI50: 0.629 µM
  TGI: 10.3 µM
SK-MEL-2 melanoma
  GI50: 1.29 µM
  TGI: 6.54 µM
TK-10 renal
  GI50: 6.03 µM
  TGI: 15.6 µM
HOP-62 NSCLC
  GI50: 1.16 µM
  TGI: 16.6 µM
KM12 colon
  GI50: 0.0072 µM
  TGI: 9.17 µM
OVCAR-8 ovarian
  GI50: 4.26 µM
  TGI: 18.2 µM
SF-539 CNS
  GI50: 0.196 µM
  TGI: 1.13 µM
SK-MEL-5 melanoma
  GI50: 4.78 µM
  TGI: 14.9 µM
K-562 leukemia
  GI50: 0.0072 µM
  TGI: 1.11 µM
MDA-MB-231 breast
  GI50: 0.61 µM
  TGI: 6.53 µM
HCC-2998 colon
  GI50: 4.16 µM
  TGI: 14.4 µM
HCT-15 colon
  GI50: 0.496 µM
  TGI: 9.8 µM
UO-31 renal
  GI50: 3.23 µM
  TGI: 12.8 µM
HOP-92 NSCLC
  GI50: 0.238 µM
  TGI: 2.9 µM
OVCAR-4 ovarian
  GI50: 3.89 µM
  TGI: 18.3 µM
MCF7 breast
  GI50: 0.295 µM
  TGI: 3.68 µM
CCRF-CEM leukemia
  GI50: 0.203 µM
  TGI: > 72 µM
SNB-19 CNS
  GI50: 9.94 µM
  TGI: 21.5 µM
RPMI-8226 leukemia
  GI50: 1.39 µM
  TGI: > 72 µM
UACC-62 melanoma
  GI50: 8.37 µM
  TGI: 18.2 µM
MDA-MB-468 breast
  GI50: 1.66 µM
  TGI: 13 µM
T-47D breast
  GI50: > 72 µM
  TGI: > 72 µM
MOLT-4 leukemia
  GI50: 0.356 µM
  TGI: 4.07 µM
SK-MEL-28 melanoma
  GI50: 2.59 µM
  TGI: 5.8 µM
RXF 393 renal
  GI50: 1.31 µM
  TGI: 8.63 µM
NCI-H460 lung
  GI50: 0.496 µM
  TGI: 13.1 µM
HL-60(TB) leukemia
  GI50: 0.31 µM
  TGI: 4.25 µM
786-0 renal
  GI50: 3.53 µM
  TGI: 15.6 µM
OVCAR-3 ovarian
  GI50: 6.35 µM
  TGI: > 39.7 µM
NCI-H226 lung
  GI50: 0.147 µM
  TGI: 2.3 µM
CAKI-1 renal
  GI50: 1.08 µM
  TGI: 10.5 µM
SK-OV-3 ovarian
  GI50: 5.68 µM
  TGI: 20 µM
MALME-3M melanoma
  GI50: 0.384 µM
  TGI: 3.32 µM
M14 melanoma
  GI50: 0.569 µM
  TGI: 3.12 µM
BT-549 breast
  GI50: 1.47 µM
  TGI: 9.85 µM
HCT-116 colon
  GI50: 0.244 µM
  TGI: 5.55 µM
NCI-H522 lung
  GI50: 1.84 µM
  TGI: 14.1 µM
NCI/ADR-RES ovarian
  GI50: 2.23 µM
  TGI: 9.34 µM
SN12C renal
  GI50: 1.37 µM
  TGI: 8.03 µM
U251 CNS
  GI50: 9.62 µM
  TGI: 23.2 µM
SF-268 CNS
  GI50: 2.83 µM
  TGI: 18.5 µM
DU-145 prostate
  GI50: 2.19 µM
  TGI: 13.4 µM
EKVX NSCLC
  GI50: 1.22 µM
  TGI: 13.3 µM
COLO 205 colon
  GI50: 0.265 µM
  TGI: 2.34 µM
SF-295 CNS
  GI50: 0.986 µM
  TGI: 15.5 µM
OVCAR-5 ovarian
  GI50: 0.838 µM
  TGI: 9.91 µM
SNB-75 CNS
  GI50: 5.91 µM
  TGI: 15.9 µM
ACHN renal
  GI50: 1.39 µM
  TGI: > 28.4 µM
